From patent US20260109694A1, “HETEROCYCLIC COMPOUNDS AND USES THEREOF” (Kumquat Biosciences Inc., priority 2023, published 2026)
pIC50: −log10 of the molar value.

Legend:
PTPN2 = molecular target: T1, PTPN2 (Homo sapiens, UniProt P17706); assay: Phosphatase activity assay (DiFMUP substrate); type: biochemical; conditions: value bin printed in column head
T1 sequence (P17706 1-415): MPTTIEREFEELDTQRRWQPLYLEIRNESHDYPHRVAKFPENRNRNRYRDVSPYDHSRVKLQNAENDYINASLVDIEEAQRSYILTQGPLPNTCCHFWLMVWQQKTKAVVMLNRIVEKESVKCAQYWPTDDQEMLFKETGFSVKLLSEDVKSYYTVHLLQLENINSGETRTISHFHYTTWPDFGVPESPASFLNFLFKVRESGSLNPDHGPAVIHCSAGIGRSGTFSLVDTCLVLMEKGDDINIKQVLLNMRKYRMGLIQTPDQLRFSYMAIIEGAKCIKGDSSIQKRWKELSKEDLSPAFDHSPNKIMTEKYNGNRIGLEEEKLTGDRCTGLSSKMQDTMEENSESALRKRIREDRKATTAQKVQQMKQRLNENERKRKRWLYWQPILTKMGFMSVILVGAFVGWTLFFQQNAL
Method: (§1) The selectivity and potency of a small molecule PTPN2 inhibitor as provided herein against one or more protein tyrosine phosphatase (PTP) enzymes, and specifically against PTPN2, is assessed in various ways. The one or more PTP enzymes comprise Mycobacterium protein tyrosine phosphatase A (mPTPA), Mycobacterium protein tyrosine phosphatase B (mPTPB), PTPN1 (i.e., PTP1B), PTPN2 (i.e., TC-PTP), PTPN22 (i.e., LYP), SHP-1, SHP-2, FAP-1, Meg2, HePTP, Laforin, VHX, VHR, LMWPTP, Cdc14A, LAR, CD45, PTPRG, a fragment thereof, a variant thereof, and a combination thereof. Selectivity and potency of a small molecule PTPN2 inhibitor is evaluated using a PTP activity inhibition assay. The assay is performed using a buffer comprising 50 mM HEPES buffer pH 7.5, 150 mM NaCl, 0.5 mM EDTA, 1 mM DTT, 0.001% Tween-20.
(§2) The assay is performed using a phosphated substrate, e.g., 10 mM 6,8-Difluoro-4-Methylumbelliferyl Phosphate (DIFMUP) that is stored at −20° C. Alternatively or in addition to, the assay is performed using other phosphated substrate (e.g., fluorescein diphosphate). Each PTP enzyme is diluted in the assay buffer
(§3) The assay can be carried out at room temperature in multiplate format, e.g., using 384 well plates. A small molecule PTPN2 inhibitor dissolved in DMSO at one of 10 concentrations from a serial dilution or DMSO alone for control is added to each well. A mixture of the assay buffer comprising PTP enzyme (e.g., 0.025 ng/ul PTPN2) is added to each well and mixed for approximately 2 minutes. The reaction is initiated by adding DiFMUP diluted in the assay buffer to a final concentration of approximately 45 µM DiFMUP in PTPN2 assay. For each PTP enzyme, DiFMUP is added at the Km (Michaelis constant) of the enzyme that had been independently determined. The phosphatase activity of the PTP enzyme is assessed by monitoring appearance of a fluorescent product (6,8-difluoro-7-hydroxyl-4-coumarin (DiFMU) from DiFMUP) continuously for about 15 to 30 minutes, using the INFINITE M1000Pro plate reader (Tecan) with excitation at 360 nm and emission at 450 nm (cutoff filter at 435 nm) for DiFMU. Each assay is performed at least in duplicate. The rate (e.g., the initial rate) of DiFMU formation is plotted against the concentration of the small molecule PTPN2 inhibitor, and the data is fitted (e.g., using a 4-parameter equation) to determine the inflection point of the fit as the IC50 of the small molecule PTPN2 inhibitor for a specific enzyme. Utilizing this assay, the ability of the compounds in Table 1 to inhibit PTPN2 and PTP1B has been assessed. Table 3 summarizes the IC50 values.

PTP1B = molecular target: T2, PTP1B (Homo sapiens, UniProt P18031); assay: Phosphatase activity assay (DiFMUP substrate); type: biochemical; conditions: value bin printed in column head
T2 sequence (P18031 1-435): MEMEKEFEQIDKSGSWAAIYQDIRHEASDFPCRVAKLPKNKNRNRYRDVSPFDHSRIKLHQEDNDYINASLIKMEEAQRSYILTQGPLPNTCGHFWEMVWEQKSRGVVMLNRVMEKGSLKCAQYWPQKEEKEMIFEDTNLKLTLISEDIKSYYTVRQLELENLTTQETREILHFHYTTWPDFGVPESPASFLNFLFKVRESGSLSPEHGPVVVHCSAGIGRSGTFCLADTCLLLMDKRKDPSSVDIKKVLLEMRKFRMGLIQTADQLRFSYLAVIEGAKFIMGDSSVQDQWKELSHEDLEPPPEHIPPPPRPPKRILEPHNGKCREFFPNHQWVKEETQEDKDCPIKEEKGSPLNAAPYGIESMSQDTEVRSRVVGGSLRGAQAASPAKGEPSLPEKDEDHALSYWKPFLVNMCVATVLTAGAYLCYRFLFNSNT
Method: as §1, §2, §3

SMILES	pIC50 (PTPN2)	pIC50 (PTP1B)
O=C1CN(c2c(O)ccc(C3=CC(CCC4CCC4)NC3)c2F)S(=O)(=O)N1 (racemic) [Compound 106, 5-(3-(5-(2-cyclobutylethyl)-2,5-dihydro-1H-pyrrol-3-yl)-2-fluoro-6-hydroxyphenyl)-1,2,5-thiadiazolidin-3-one 1,1-dioxide]	≥ 6.00	≥ 6.00
O=C1CN(c2c(O)ccc(C3=C[C@@H](C=CC4CC4)NC3)c2F)S(=O)(=O)N1 (single isomer, unassigned) [Compound 102, (R,E)-5-(3-(5-(2-cyclopropylvinyl)-2,5-dihydro-1H-pyrrol-3-yl)-2-fluoro-6-hydroxyphenyl)-1,2,5-thiadiazolidin-3-one 1,1-dioxide or (R,Z)-5-(3-(5-(2-cyclopropylvinyl)-2,5-dihydro-1H-pyrrol-3-yl)-2-fluoro-6-hydroxyphenyl)-1,2,5-thiadiazolidin-3-one 1,1-dioxide]	≥ 6.00	≥ 6.00
O=C1CN(c2c(O)ccc(C3=CC(CCC4CCCC4)NC3)c2F)S(=O)(=O)N1 (stereo not shown) [Compound 101, 5-(3-(5-(2-cyclopentylethyl)-2,5-dihydro-1H-pyrrol-3-yl)-2-fluoro-6-hydroxyphenyl)-1,2,5-thiadiazolidin-3-one 1,1-dioxide]	≥ 6.00	≥ 6.00
O=C1CN(c2c(O)ccc(CC3CNC3)c2F)S(=O)(=O)N1 [Compound 103, 5-(3-(azetidin-3-ylmethyl)-2-fluoro-6-hydroxyphenyl)-1,2,5-thiadiazolidin-3-one 1,1-dioxide]	≥ 6.00	≥ 6.00
CC1(CCC2C=C(c3ccc(O)c(N4CC(=O)NS4(=O)=O)c3F)CN2)CC1 (stereo not shown) [Compound 104, 5-(2-fluoro-6-hydroxy-3-(5-(2-(1-methylcyclopropyl)ethyl)-2,5-dihydro-1H-pyrrol-3-yl)phenyl)-1,2,5-thiadiazolidin-3-one 1,1-dioxide]	≥ 6.00	≥ 6.00
O=C1CN(c2c(O)cc(C3=CC(CCC4CC4)NC3)cc2F)S(=O)(=O)N1 (stereo not shown) [Compound 105, 5-(4-(5-(2-cyclopropylethyl)-2,5-dihydro-1H-pyrrol-3-yl)-2-fluoro-6-hydroxyphenyl)-1,2,5-thiadiazolidin-3-one 1,1-dioxide]	≥ 6.00	≥ 6.00
N#CCC1C=C(c2ccc(O)c(N3CC(=O)NS3(=O)=O)c2F)CN1 (stereo not shown) [Compound 107, 2-(4-(3-(1,1-dioxido-4-oxo-1,2,5-thiadiazolidin-2-yl)-2-fluoro-4-hydroxyphenyl)-2,5-dihydro-1H-pyrrol-2-yl)acetonitrile]	≥ 6.00	≥ 6.00
CC1(C2C=C(c3ccc(O)c(N4CC(=O)NS4(=O)=O)c3F)CN2)CC1 (stereo not shown) [Compound 108, 5-(2-fluoro-6-hydroxy-3-(5-(1-methylcyclopropyl)-2,5-dihydro-1H-pyrrol-3-yl)phenyl)-1,2,5-thiadiazolidin-3-one 1,1-dioxide]	≥ 6.00	< 6.00
O=C1CN(c2c(O)ccc(C3=CC(C4CC4)NC3)c2F)S(=O)(=O)N1 (stereo not shown) [Compound 109, 5-(3-(5-cyclopropyl-2,5-dihydro-1H-pyrrol-3-yl)-2-fluoro-6-hydroxyphenyl)-1,2,5-thiadiazolidin-3-one 1,1-dioxide]	≥ 6.00	≥ 6.00
CC(C)(C)CC[C@@H]1C=C(c2ccc(O)c(N3CC(=O)NS3(=O)=O)c2F)CN1 [Compound 110, (R)-5-(3-(5-(3,3-dimethylbutyl)-2,5-dihydro-1H-pyrrol-3-yl)-2-fluoro-6-hydroxyphenyl)-1,2,5-thiadiazolidin-3-one 1,1-dioxide]	≥ 6.00	≥ 6.00

Second part, the compound after the results:

pIC50 (PTPN2)	pIC50 (PTP1B)	SMILES
≥ 6.00	≥ 6.00	CC(OC(=O)C(C)C)OC(=O)N1CC(c2ccc(O)c(N3CC(=O)NS3(=O)=O)c2F)=C[C@H]1CCC1CC1 (mixture of isomers) [Compound 111, 1-(isobutyryloxy)ethyl (2R)-2-(2-cyclopropylethyl)-4-(3-(1,1-dioxido-4-oxo-1,2,5-thiadiazolidin-2-yl)-2-fluoro-4-hydroxyphenyl)-2,5-dihydro-1H-pyrrole-1-carboxylate]
< 6.00	< 6.00	NC1CCCC1c1ccc(O)c(N2CC(=O)NS2(=O)=O)c1F (stereo not shown) [Compound 112, 5-(3-(2-aminocyclopentyl)-2-fluoro-6-hydroxyphenyl)-1,2,5-thiadiazolidin-3-one 1,1-dioxide]
≥ 6.00	≥ 6.00	O=C1CN(c2c(O)ccc(C3=C[C@@H](CCC4CC4)NC3)c2F)S(=O)(=O)N1 [Compound 113, (R)-5-(3-(5-(2-cyclopropylethyl)-2,5-dihydro-1H-pyrrol-3-yl)-2-fluoro-6-hydroxyphenyl)-1,2,5-thiadiazolidin-3-one 1,1-dioxide]
≥ 6.00	≥ 6.00	CCC[C@@H]1C=C(c2ccc(O)c(N3CC(=O)NS3(=O)=O)c2F)CN1 [Compound 114, (R)-5-(2-fluoro-6-hydroxy-3-(5-propyl-2,5-dihydro-1H-pyrrol-3-yl)phenyl)-1,2,5-thiadiazolidin-3-one 1,1-dioxide]
≥ 6.00	≥ 6.00	CC1(C)CC1CCC1C=C(c2ccc(O)c(N3CC(=O)NS3(=O)=O)c2F)CN1 (stereo not shown) [Compound 115, 5-(3-(5-(2-(2,2-dimethylcyclopropyl)ethyl)-2,5-dihydro-1H-pyrrol-3-yl)-2-fluoro-6-hydroxyphenyl)-1,2,5-thiadiazolidin-3-one 1,1-dioxide]
≥ 6.00	≥ 6.00	O=C1CN(c2c(O)ccc(C3=C[C@@H](CCC4CCC4)NC3)c2F)S(=O)(=O)N1 [Compound 116, (R)-5-(3-(5-(2-cyclobutylethyl)-2,5-dihydro-1H-pyrrol-3-yl)-2-fluoro-6-hydroxyphenyl)-1,2,5-thiadiazolidin-3-one 1,1-dioxide]
≥ 6.00	≥ 6.00	CC1CC1C1C=C(c2ccc(O)c(N3CC(=O)NS3(=O)=O)c2F)CN1 (stereo not shown) [Compound 117, 5-(2-fluoro-6-hydroxy-3-(5-(2-methylcyclopropyl)-2,5-dihydro-1H-pyrrol-3-yl)phenyl)-1,2,5-thiadiazolidin-3-one 1,1-dioxide]
< 6.00	< 6.00	CC1=C(c2ccc(O)c(N3CC(=O)NS3(=O)=O)c2F)CNC1C (stereo not shown) [Compound 118, 5-(3-(4,5-dimethyl-2,5-dihydro-1H-pyrrol-3-yl)-2-fluoro-6-hydroxyphenyl)-1,2,5-thiadiazolidin-3-one 1,1-dioxide]
≥ 6.00	≥ 6.00	N#CCCCC1C=C(c2ccc(O)c(N3CC(=O)NS3(=O)=O)c2F)CN1 (stereo not shown) [Compound 119, 4-(4-(3-(1,1-dioxido-4-oxo-1,2,5-thiadiazolidin-2-yl)-2-fluoro-4-hydroxyphenyl)-2,5-dihydro-1H-pyrrol-2-yl)butanenitrile]
≥ 6.00	≥ 6.00	CC(C)(C)CC[C@H]1C=C(c2ccc(O)c(N3CC(=O)NS3(=O)=O)c2F)CN1 [Compound 120, (S)-5-(3-(5-(3,3-dimethylbutyl)-2,5-dihydro-1H-pyrrol-3-yl)-2-fluoro-6-hydroxyphenyl)-1,2,5-thiadiazolidin-3-one 1,1-dioxide]
